This note sets out measurements from ChEMBL document CHEMBL1155052, “Hypaphorine, an indole alkaloid from Erythrina velutina, induced sleep on normal mice” (2008).

Structures are written as SMILES.

What all share (format): functional
Conditions in all cases: route intraperitoneal

The test system of assay [1] is Mus musculus. Nature of the assay: Increase in non-rapid eye movement sleep time in C57BL mouse assessed during first hour of administration at 300 mg/kg, ip.
Assay [2] concerns Mus musculus. Nature of the assay: Increase in total sleep time in C57BL mouse assessed during first hour of administration at 300 mg/kg, ip.
Assay [3] concerns Mus musculus. Kind of assay: Decrease in waking duration in C57BL mouse assessed during first hour of administration at 300 mg/kg, ip. Also noted: scale not given: the % may be the effect or the level left.

For `C[N+](C)(C)[C@H](Cc1c[nH]c2ccccc12)C(=O)[O-]` [HYPAPHORINE], the Activity in the assay on Mus musculus [1] is on record as 33%; in the assay on Mus musculus [2] it was 32%; in the assay on Mus musculus [3] it was 16%.
